# From patent EP4782453A1 (Beyang Therapeutics Co., Ltd., priority 2023, dated 2025)
# Like-named read-outs stand apart in the source and are kept apart here.
# Assays:
# Menin-MLL = target: T1, Menin-MLL (Homo sapiens, UniProt O00255); assay: Inhibitory activity against Menin-MLL binding (fluorescence polarization); details: 150 nM His-Menin, 15 nM FITC-MLL, 25°C for 60 min
# T1 construct: His-Menin (M1-L615 end); purchased BIORTUS BP9210
# T1 sequence (O00255 1-615 isoform O00255-1): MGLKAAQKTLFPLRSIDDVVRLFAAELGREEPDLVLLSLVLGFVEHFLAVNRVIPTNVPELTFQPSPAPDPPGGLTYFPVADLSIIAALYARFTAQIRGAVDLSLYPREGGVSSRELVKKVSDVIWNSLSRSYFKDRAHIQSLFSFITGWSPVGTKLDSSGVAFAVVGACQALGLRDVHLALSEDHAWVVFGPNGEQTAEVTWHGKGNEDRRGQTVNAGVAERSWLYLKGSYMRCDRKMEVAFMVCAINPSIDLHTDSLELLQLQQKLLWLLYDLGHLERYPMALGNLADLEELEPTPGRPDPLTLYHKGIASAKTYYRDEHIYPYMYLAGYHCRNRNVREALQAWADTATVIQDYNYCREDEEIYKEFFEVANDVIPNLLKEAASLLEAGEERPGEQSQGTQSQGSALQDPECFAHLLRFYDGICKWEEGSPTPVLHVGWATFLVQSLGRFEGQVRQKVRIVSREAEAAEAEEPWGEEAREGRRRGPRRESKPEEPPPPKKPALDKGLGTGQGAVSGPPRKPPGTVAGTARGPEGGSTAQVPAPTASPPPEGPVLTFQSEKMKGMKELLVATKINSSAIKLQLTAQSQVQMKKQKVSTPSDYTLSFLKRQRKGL
# Procedure, shortened: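 His-Menin (M1-L615, 150 nM) preincubated with compound 15 min at 25 °C in HEPES pH 7.5, 50 mM NaCl, 1 mM DTT, 0.01% BSA, then 15 nM FITC-MLL4-43 peptide added for 60 min at 25 °C. Fluorescence polarization read; IC50 from 4-parameter logistic fit, duplicates.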
# [1] = system: MV-4-11 (carrying MLL-AF4); assay: Inhibition of proliferation of human tumor cells (Alamar Blue, 7 days), MV-4-11; type: cell-based; details: Homo sapiens, MV4-11, 168 h, MV-4-11 cells (carrying MLL-AF4), method calls the value GI50
# Source text: Experimental Example 2: Evaluation of Inhibitory Activity of Compounds Against Proliferation of Human Tumor Cells
# • Human acute lymphoblastic leukemia cells MV-4-11, purchased from American Type Culture Collection, Catalog Number: CRL-9591; • Human acute myeloid leukemia cells MOLM-13, purchased from COBIOER BIOSCIENCES CO., LTD, Catalog Number: CBP60678; • Human acute myeloid leukemia cells KG-1a, purchased from American Type Culture Collection, Catalog Number: CCL-246.1; • Inverted Microscope, purchased from Olympus Tokyo; • Countess™ Automated Cell Counter, purchased from Invitrogen, Model: C10281; and • Multilabel Reader, purchased from Bio-Tek, Model: Synergy HT.
# MV-4-11 cells were cultured in an IMDM medium containing 10% fetal bovine serum, KG-a cells were cultured in an IMDM medium containing 20% fetal bovine serum, or MOLM-13 cells were cultured in an RPMI-1640 medium containing 20% fetal bovine serum, each supplemented with 100 U·mL^-1 penicillin and 100 µg·mL^-1 streptomycin. These cells were cultured at 37°C with 5% CO2. The suspensions of individual cell lines were prepared in their respective media and seeded into 96-well plates at a density of 4,000 cells/well for MV-4-11 and MOLM-13 cells, or 3,000 cells/well for KG-1a cells. On the day of the experiment, a compound stock solution was diluted in a 3-fold or 4-fold gradient using DMSO. Each gradient-diluted stock solution was then further diluted 250-fold with a complete medium to prepare a series of working solutions at different concentrations. Subsequently, 100 µL of working solution (containing a 2-fold concentration series of the test compound) was added to each well, with duplicate wells set up for each concentration.
# Seven days after compound addition (on Day 7), an Alamar Blue assay reagent (MCE, HY-111391 / CS-0040317) was added to measure the fluorescence intensity in each well. Wells containing the cells in the growth medium supplemented with 0.1% DMSO (Day 7) served as high-read control wells. The readouts from the wells containing the cells in the growth medium supplemented with 0.1% DMSO on the day of compound addition (Day 0) served as low-reading control well. GraphPad Prism software was used to calculate the concentration required to inhibit 50% of cell proliferation (GI50), which serves as a cell proliferation inhibition activity index.
# [2] = system: MOLM-13 (carrying MLL-AF9); assay: Inhibition of proliferation of human tumor cells (Alamar Blue, 7 days), MOLM-13; type: cell-based; details: Homo sapiens, MOLM-13 cells (carrying MLL-AF9), method calls the value GI50
# Procedure, shortened: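 Cells seeded at 4,000/well (MV-4-11, MOLM-13) or 3,000/well (KG-1a), treated in duplicate with serial compound dilutions for 7 days at 37°C, 5% CO2. Alamar Blue fluorescence read on Day 7, normalised to 0.1% DMSO Day-7 (high) and Day-0 (low) controls; GI50 derived.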
# [3] = fluorescence polarization, read-out: Menin-MLL IC50
# [4] = Menin-MLL IC50, fluorescence polarization
smiles,measurement,setting,value
"CCNC(=O)N1CCC(C(C)N2CC(c3cc(-c4ccc(F)cc4C(=O)N(CC)C(C)C)c4c(F)nc(C)n4c3)C2)CC1 (centres unmarked) [Example 282, N-ethyl-4-{1-[3-(8-{2-[ethyl(isopropyl)aminoformyl]-4-fluorophenyl}-1-fluoro-3-methylimidazo[1,5-a]pyridin-6-yl)azacyclobutan-1-yl]ethyl}piperidin-1-formamide]",IC50,Menin-MLL; [3],0.004 µM
same,IC50,[1],0.0054 µM
same,IC50,[2]; 168 h,0.025 µM
"Cc1ncc2c(-c3ccc(F)cc3C(=O)N3CCOC[C@H]3C)cc(C3CN(CC4CCOCC4)C3)cn12 [Example 243, (3R)-4-[5-fluoro-2-(3-methyl-6-{1-[(oxacyclohexan-4-yl)methyl]azacyclobutan-3-yl}imidazo[1,5-a]pyridin-8-yl)benzoyl]-3-methylmorpholine]",IC50,Menin-MLL; [3],0.0315 µM
same,IC50,[1],0.042 µM
same,IC50,[2]; 168 h,0.2 µM
Cc1nc(F)c2c(-c3ccc(F)cc3C(=O)N3[C@H](C)COC[C@H]3C)cc(C3CN(CC4CCN(C(=O)c5cncnc5)CC4)C3)cn12 [Example 234],IC50,Menin-MLL; [3],0.011 µM
same,IC50,[1],0.0058 µM
same,IC50,[2]; 168 h,0.014 µM
COCCC(=O)N1CCC(CN2CC(c3cc(-c4ccc(F)cc4C(=O)N4[C@H](C)COC[C@H]4C)c4c(F)nc(C)n4c3)C2)CC1 [Example 223],IC50,Menin-MLL; [3],0.015 µM
same,IC50,[1],0.0081 µM
same,IC50,[2]; 168 h,0.019 µM
Cc1ncc2c(-c3ccc(F)cc3C(=O)N(CC(F)F)C(C)C)cc(C3CN(C(=O)[C@@H]4CCCCN4)C3)cn12 [Example 133],IC50,Menin-MLL; [3],0.03 µM
same,IC50,[1],0.049 µM
same,IC50,[2]; 168 h,0.031 µM
CCS(=O)(=O)N[C@H]1CC[C@H](CN2CCC(c3cc(-c4ccc(F)cc4C(=O)N(CC(F)F)C(C)C)c4cnc(C)n4c3)CC2)CC1 [Example 128],IC50,Menin-MLL; [4],0.037 µM
same,IC50,[1],0.056 µM
same,IC50,"[2]; MOLM-13, 168 h",0.03 µM
CCNC(=O)N1CCC(C(C)N2CC(c3cc(-c4ccc(F)cc4C(=O)N(CC)C(C)C)c4cnc(C)n4c3)C2)CC1 (centres unmarked) [Example 285],IC50,Menin-MLL; [3],0.004 µM
same,IC50,[1],0.0054 µM
same,IC50,[2]; 168 h,0.023 µM
CNC(=O)N1CCC(CN2CC(c3cc(-c4ccc(F)cc4C(=O)N4CCOC[C@H]4C)c4c(F)nc(C)n4c3)C2)CC1 [Example 250],IC50,Menin-MLL; [3],0.017 µM
same,IC50,[1],0.026 µM
same,IC50,[2]; 168 h,0.045 µM
Cc1ncc2c(-c3ccc(F)cc3C(=O)N3CCC[C@H]3C)cc(C3CN(C(C)C4CCOCC4)C3)cn12 (some centres unmarked) [Example 190],IC50,Menin-MLL; [3],0.0295 µM
same,IC50,[1],0.025 µM
same,IC50,[2]; 168 h,0.04 µM
CCCC(=O)N1CCC([C@H](C)N2CC(c3cc(-c4ccc(F)cc4C(=O)N4CCOC[C@H]4C)c4c(F)nc(C)n4c3)C2)CC1 [Example 294],IC50,Menin-MLL; [3],0.0095 µM
same,IC50,[1],0.0049 µM
same,IC50,[2]; 168 h,0.046 µM
"Cc1nc(F)c2c(-c3ccc(F)cc3C(=O)N3CCOC[C@H]3C)cc(C3CN(C[C@H]4CC[C@@H](n5cncn5)CC4)C3)cn12 [Example 267, (3R)-4-{5-fluoro-2-[1-fluoro-3-methyl-6-(1-{[(1s,4s)-4-(1H-1,2,4-triazol-1-yl)cyclohexyl]methyl}azacyclobutan-3-yl)imidazo[1,5-a]pyridin-8yl]benzoyl}-3-methylmorpholine]",IC50,Menin-MLL; [3],0.012 µM
same,IC50,[1],0.02 µM
same,IC50,[2]; 168 h,0.045 µM
"CCS(=O)(=O)N[C@H]1CC[C@H](CN2CC(c3cc(-c4ccc(F)cc4C(=O)N4CCC[C@H]4C)c4c(F)nc(C)n4c3)C2)CC1 [Example 187, N-[(1r,4r)-4-{[3-(1-fluoro-8-{4-fluoro-2-[(2R)-2-methylpyrrolidin-1-carbonyl]phenyl}-3-methylimidazo[1,5-a]pyridin-6-yl)azacyclobutan-1-yl]methyl}cyclohexyl]ethan-1-sulfonamide]",IC50,Menin-MLL; [4],0.0165 µM
same,IC50,[1],0.015 µM
same,IC50,"[2]; MOLM-13, 168 h",0.036 µM
"Cc1nc(F)c2c(-c3ccc(F)cc3C(=O)N3CCOC[C@H]3C)cc(C3CN(CC4CCOCC4)C3)cn12 [Example 232, (3R)-4-[5-fluoro-2-(1-fluoro-3-methyl-6-{1-[(oxacyclohexan-4-yl)methyl]azacyclobutan-3-yl}imidazo[1,5-a]pyridin-8-yl)benzoyl]-3-methylmorpholine]",IC50,Menin-MLL; [3],0.0175 µM
same,IC50,[1],0.017 µM
same,IC50,[2]; 168 h,0.034 µM
CO[C@H]1CCN(CCC[C@H](C(C)C)N2CC(c3cc(-c4ccc(F)cc4C(=O)N4CCOC[C@H]4C)c4cnn(C)c4c3)C2)C1 [Example 184-2],IC50,Menin-MLL; [3],0.013 µM
same,IC50,[1],0.0063 µM
same,IC50,[2]; 168 h,0.034 µM
Cc1nc(F)c2c(-c3ccc(F)cc3C(=O)N3[C@H](C)COC[C@H]3C)cc(C3CN(CC4CCN(C(=O)C5CC5)CC4)C3)cn12 [Example 215],IC50,Menin-MLL; [3],0.011 µM
same,IC50,[1],0.0067 µM
same,IC50,[2]; 168 h,0.013 µM
Cc1nc(F)c2c(-c3ccc(F)cc3C(=O)N3CCOC[C@H]3C)cc(C3CN(CC4CCN(C(=O)N5CC(F)(F)C5)CC4)C3)cn12 [Example 258],IC50,Menin-MLL; [3],0.05 µM
same,IC50,[1],0.036 µM
same,IC50,[2]; 168 h,0.049 µM
Cc1nc(F)c2c(-c3ccc(F)cc3C(=O)N3CCOC[C@H]3C)cc(C3CN(CC4CCN(C(=O)C(F)F)CC4)C3)cn12 [Example 268],IC50,Menin-MLL; [3],0.0325 µM
same,IC50,[1],0.036 µM
same,IC50,[2]; 168 h,0.096 µM
Cc1nc(F)c2c(-c3ccc(F)cc3C(=O)N3[C@H](C)COC[C@H]3C)cc(C3CN(CC4CCN(C(=O)N5CC(F)(F)C5)CC4)C3)cn12 [Example 242],IC50,Menin-MLL; [3],0.0095 µM
same,IC50,[1],0.0059 µM
same,IC50,[2]; 168 h,0.028 µM
"Cc1nc(F)c2c(-c3ccc(F)cc3C(=O)N3CCOC[C@H]3C)cc(C3CN(CC4CCN(c5cncnc5)CC4)C3)cn12 [Example 266, (3R)-4-{5-fluoro-2-[1-fluoro-3-methyl-6-(1-{[1-(pyrimidin-5-yl)piperidin-4-yl]methyl}azacyclobutan-3-yl)imidazo[1,5-a]pyridin-8yl]benzoyl}-3-methylmorpholine]",IC50,Menin-MLL; [3],0.013 µM
same,IC50,[1],0.013 µM
same,IC50,[2]; 168 h,0.033 µM
"CNCCCC(C(C)C)N1CC(c2cc(-c3ccc(F)cc3C(=O)N(CC(F)F)C(C)C)c3cnccn23)C1 (centres unmarked) [Example 146, N-(2,2-difluoroethyl)-5-fluoro-2-(6-{1-[2-methyl-6-(methylamino)hexan-3-yl]azacyclobutan-3-yl}pyrrolo[1,2-a]pyrazin-8-yl)-N-(isopropyl)benzamide]",IC50,Menin-MLL; [3],0.046 µM
same,IC50,[1],0.089 µM
Cc1nc(F)c2c(-c3ccc(F)cc3C(=O)N3[C@H](C)COC[C@H]3C)cc(C3CN(CC4CCN(C(=O)CC(C)C)CC4)C3)cn12 [Example 218],IC50,Menin-MLL; [3],0.013 µM
same,IC50,[1],0.006 µM
same,IC50,[2]; 168 h,0.011 µM
"CCN(C(=O)c1cc(F)ccc1-c1cc(C2CN([C@H](CCCN(C)CCOC)C(C)C)C2)cn2c(C)nc(F)c12)C(C)C [Example 307-2, N-ethyl-5-fluoro-2-(1-fluoro-6-{1-[(3R)-6-[(2-methoxyethyl)(methyl)amino]-2-methylhexan-3-yl]azacyclobutan-3-yl}-3-methylimidazo[1,5-a]pyridin-8-yl)-N-(isopropyl)benzamide]",IC50,Menin-MLL; [3],0.006 µM
same,IC50,[1],0.00069 µM
same,IC50,[2]; 168 h,0.0037 µM
